# According to patent publication US12098145B2 (Libra Therapeutics, Inc., priority 2022, dated 2024):
# Molecular target: T1, TRPML1 (Homo sapiens, UniProt Q9GZU1)
# T1 construct: expressed in transfected cells; host or cells: HEK T-REx cells stably expressing GCaMP6f and TRPML1
# Assay: Cellular TRPML1 assay (FLIPR, GCaMP6f calcium read-out)
# Type: cell-based
# Conditions: not given
# How it was run: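 HEK T-REx cells stably expressing TRPML1 and GCaMP6f, seeded 24 h before in Optimem + 0.5% FBS. After ~10 min pre-incubation at room temperature, compounds in Ca2+-free Tyrode's buffer were injected on FLIPR Tetra (final DMSO 0.5%). Calcium fluorescence kinetics followed for 300 s.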
# T1 sequence (Q9GZU1 whole entry): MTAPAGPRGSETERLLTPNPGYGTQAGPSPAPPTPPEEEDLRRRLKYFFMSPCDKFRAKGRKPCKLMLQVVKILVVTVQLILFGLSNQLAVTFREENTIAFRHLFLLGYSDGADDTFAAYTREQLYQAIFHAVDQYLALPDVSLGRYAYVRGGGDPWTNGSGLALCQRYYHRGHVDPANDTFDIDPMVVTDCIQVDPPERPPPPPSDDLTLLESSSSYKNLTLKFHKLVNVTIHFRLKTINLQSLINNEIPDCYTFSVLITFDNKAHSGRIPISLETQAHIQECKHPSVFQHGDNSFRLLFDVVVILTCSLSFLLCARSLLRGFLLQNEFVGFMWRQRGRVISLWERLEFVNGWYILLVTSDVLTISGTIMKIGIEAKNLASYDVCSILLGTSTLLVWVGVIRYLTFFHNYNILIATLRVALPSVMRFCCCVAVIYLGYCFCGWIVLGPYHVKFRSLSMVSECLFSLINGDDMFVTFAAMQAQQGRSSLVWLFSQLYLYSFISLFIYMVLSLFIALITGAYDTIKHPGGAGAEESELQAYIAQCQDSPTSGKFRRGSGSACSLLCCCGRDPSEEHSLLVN
row,SMILES,EC50
1,"O=C(Nc1cc(F)c(N2CC3CC(C3)C2)c(F)c1)c1nc(N2CCC3(COC3)C2)oc1CC(F)(F)F [Example 208, N-(4-(3-azabicyclo[3.1.1]heptan-3-yl)-3,5-difluorophenyl)-2-(2-oxa-6-azaspiro[3.4]octan-6-yl)-5-(2,2,2-trifluoroethyl)oxazole-4-carboxamide]",10 to 1000 nM
2,"O=C(Nc1cc(F)c(N2CC3CC(C3)C2)c(F)c1)c1nc(N2CCCC2)oc1CC(F)(F)F [Example 209, N-(4-(3-azabicyclo[3.1.1]heptan-3-yl)-3,5-difluorophenyl)-2-(pyrrolidin-1-yl)-5-(2,2,2-trifluoroethyl)oxazole-4-carboxamide]",10 to 1000 nM
3,"O=C(Nc1cc(F)c(N2C3CCCC2CC3)c(F)c1)c1nc(N2CCCC2)oc1CC(F)(F)F [Example 210, N-(4-(8-azabicyclo[3.2.1]octan-8-yl)-3,5-difluorophenyl)-2-(pyrrolidin-1-yl)-5-(2,2,2-trifluoroethyl)oxazole-4-carboxamide]",10 to 1000 nM

# Same assay, conditions: HEKT-REx/GCaMP6f/TRPML1 cells, FLIPR TETRA, kinetic response over 300 seconds; read-out: TRPML1 FLIPR pEC50 (converted)
row,SMILES,EC50
1,"CCC1(CC)CN(c2nc(C(=O)Nc3cnc(OC4CC5C[C@H]5C4)c(F)c3)c(CC(F)(F)F)o2)C1 (stereo partly drawn) [Example 191, N-(6-(cis-bicyclo[3.1.0]hexan-3-yloxy)-5-fluoropyridin-3-yl)-2-(3,3-diethylazetidin-1-yl)-5-(2,2,2-trifluoroethyl)oxazole-4-carboxamide]",1000 to 10000 nM
2,"CCC1(CC)CN(c2nc(C(=O)Nc3cc(C)c(NC4CC5CC(C5)C4)c(F)c3)c(CC(F)(F)F)o2)C1 (stereo not drawn) [Example 192, N-(4-(bicyclo[3.1.1]heptan-3-ylamino)-3-fluoro-5-methylphenyl)-2-(3,3-diethylazetidin-1-yl)-5-(2,2,2-trifluoroethyl)oxazole-4-carboxamide]",1000 to 10000 nM
3,"O=C(Nc1cc(F)c(N2C3CCCC2CC3)c(F)c1)c1nc(N2CCCOCC2)oc1CC(F)(F)F [Example 199, N-(4-(8-azabicyclo[3.2.1]octan-8-yl)-3,5-difluorophenyl)-2-(1,4-oxazepan-4-yl)-5-(2,2,2-trifluoroethyl)oxazole-4-carboxamide]",1000 to 10000 nM
4,"CCC1(CC)CN(c2nc(C(=O)Nc3ccc(N4CCC5CC5C4)c(F)c3)c(CC(F)(F)F)o2)C1 (stereo not drawn) [Example 212, N-(4-(3-azabicyclo[4.1.0]heptan-3-yl)-3-fluorophenyl)-2-(3,3-diethylazetidin-1-yl)-5-(2,2,2-trifluoroethyl)oxazole-4-carboxamide]",10 to 1000 nM
5,"CCC1(CC)CN(c2nc(C(=O)Nc3ccc(N4CCCCC4)c(F)c3)c(CC(F)(F)F)o2)C1 [Example 216, 2-(3,3-diethylazetidin-1-yl)-N-(3-fluoro-4-(piperidin-1-yl)phenyl)-5-(2,2,2-trifluoroethyl)oxazole-4-carboxamide]",10 to 1000 nM
6,"CCc1oc(N2CC(CC)(CO)C2)nc1C(=O)Nc1cc(F)c(O[C@@H]2C[C@@H]3C[C@@H]3C2)c(Cl)c1 [Example 220, N-(4-(cis-bicyclo[3.1.0]hexan-3-yloxy)-3-chloro-5-fluorophenyl)-5-ethyl-2-(3-ethyl-3-(hydroxymethyl)azetidin-1-yl)oxazole-4-carboxamide]",10 to 1000 nM

# Now from value to compound:
row,EC50,SMILES
1,10 to 1000 nM,"O=C(Nc1cc(F)c(O[C@@H]2C[C@@H]3C[C@@H]3C2)c(F)c1)c1nc(N2CC3(CCOC3)C2)oc1CC(F)(F)F [Example 189, N-(4-(cis-bicyclo[3.1.0]hexan-3-yloxy)-3,5-difluorophenyl)-2-(6-oxa-2-azaspiro[3.4]octan-2-yl)-5-(2,2,2-trifluoroethyl)oxazole-4-carboxamide]"
2,1000 to 10000 nM,"O=C(Nc1ccc(OCC2CC3CC3C2)c(F)c1)c1nc(N2CCCC2)oc1CC(F)(F)F (stereo not drawn) [Example 190, N-(4-(bicyclo[3.1.0]hexan-3-ylmethoxy)-3-fluorophenyl)-2-(pyrrolidin-1-yl)-5-(2,2,2-trifluoroethyl)oxazole-4-carboxamide]"
3,10000 to 100000 nM,"Cc1cc(NC(=O)c2nc(N3CCCC3)oc2CC(F)(F)F)cc(F)c1NC1C2CCCC1CC2 (stereo not drawn) [Example 194, N-(4-(bicyclo[3.2.1]octan-8-ylamino)-3-fluoro-5-methylphenyl)-2-(pyrrolidin-1-yl)-5-(2,2,2-trifluoroethyl)oxazole-4-carboxamide]"
4,1000 to 10000 nM,"O=C(Nc1cc(F)c(N2CCC3OCCC32)c(F)c1)c1nc(N2CCCC2)oc1CC(F)(F)F (stereo not drawn) [Example 198, N-(3,5-difluoro-4-(hexahydro-4H-furo[3,2-b]pyrrol-4-yl)phenyl)-2-(pyrrolidin-1-yl)-5-(2,2,2-trifluoroethyl)oxazole-4-carboxamide]"
5,10 to 1000 nM,"CCC1(OC)CN(c2nc(C(=O)Nc3cc(F)c(N4CCC5CC5C4)c(F)c3)c(CC(F)(F)F)o2)C1 (stereo not drawn) [Example 204, N-(4-(3-azabicyclo[4.1.0]heptan-3-yl)-3,5-difluorophenyl)-2-(3-ethyl-3-methoxyazetidin-1-yl)-5-(2,2,2-trifluoroethyl)oxazole-4-carboxamide]"
6,1000 to 10000 nM,"CCC1(OC)CN(c2nc(C(=O)Nc3cc(F)c(N4CCC5CCCC54)c(F)c3)c(CC(F)(F)F)o2)C1 (stereo not drawn) [Example 205, N-(3,5-difluoro-4-(hexahydrocyclopenta[b]pyrrol-1(2H)-yl)phenyl)-2-(3-ethyl-3-methoxyazetidin-1-yl)-5-(2,2,2-trifluoroethyl)oxazole-4-carboxamide]"
7,10 to 1000 nM,"CCC1(CC)CN(c2nc(C(=O)Nc3cc(F)c(N4CCC5CC5C4)c(F)c3)c(CC(F)(F)F)o2)C1 (stereo not drawn) [Example 211, N-(4-(3-azabicyclo[4.1.0]heptan-3-yl)-3,5-difluorophenyl)-2-(3,3-diethylazetidin-1-yl)-5-(2,2,2-trifluoroethyl)oxazole-4-carboxamide]"
8,10 to 1000 nM,"CC1(C)CCCN(c2c(F)cc(NC(=O)c3nc(N4CCCC4)oc3CC(F)(F)F)cc2F)C1 [Example 213, N-(4-(3,3-dimethylpiperidin-1-yl)-3,5-difluorophenyl)-2-(pyrrolidin-1-yl)-5-(2,2,2-trifluoroethyl)oxazole-4-carboxamide]"
9,10 to 1000 nM,"O=C(Nc1cc(F)c(N2CCC3CCCC32)c(F)c1)c1nc(N2CCCC2)oc1CC(F)(F)F (stereo not drawn) [Example 214, N-(3,5-difluoro-4-(hexahydrocyclopenta[b]pyrrol-1(2H)-yl)phenyl)-2-(pyrrolidin-1-yl)-5-(2,2,2-trifluoroethyl)oxazole-4-carboxamide]"
10,10 to 1000 nM,"CCC1(CC)CN(c2nc(C(=O)Nc3cc(F)c(N4CCCCC4)c(F)c3)c(CC(F)(F)F)o2)C1 [Example 215, 2-(3,3-diethylazetidin-1-yl)-N-(3,5-difluoro-4-(piperidin-1-yl)phenyl)-5-(2,2,2-trifluoroethyl)oxazole-4-carboxamide]"
11,10000 to 100000 nM,"Cc1cc(NC(=O)c2nc(N3CCCC3)oc2CC(F)(F)F)cc(F)c1N(C)C1CC2CC(C2)C1 (stereo not drawn) [Example 217, N-(4-(bicyclo[3.1.1]heptan-3-yl(methyl)amino)-3-fluoro-5-methylphenyl)-2-(pyrrolidin-1-yl)-5-(2,2,2-trifluoroethyl)oxazole-4-carboxamide]"
12,10000 to 100000 nM,"O=C(Nc1cc(F)c(CN2CC3CC3C2)c(F)c1)c1nc(N2CCCC2)oc1CC(F)(F)F (stereo not drawn) [Example 218, N-(4-{3-azabicyclo [3.1.0]hexan-3-ylmethyl}-3,5-difluorophenyl)-2-(pyrrolidin-1-yl)-5-(2,2,2-trifluoroethyl)-1,3-oxazole-4-carboxamide]"
